Laboratory results: patent publication US11051513B2, “Pyridone compounds and agricultural and horticultural fungicides containing the same as active ingredients” (MITSUI CHEMICALS AGRO, INC., priority 2017, dated 2021)

Key:
[1] = system: Magnaporthe grisea; experiment: whole plant or invertebrate; assay type: in vivo; settings: Pyricularia oryzae, in Oryza sativa, read-out: control value
[2] = system: Puccinia recondita; experiment: Test Example E: Brown rust on wheat; assay type: in vivo; settings: 250 ppm sprayed (2.5 ml/pot) on wheat (Norin 61), disease development 7 to 10 days after inoculation
[3] = system: Botrytis cinerea; experiment: Test Example B: Gray mold on tomato; settings: in Solanum lycopersicum, read-out: control value
Procedure: (§1) Disease development in Test Examples described below was evaluated in increments of 0.05 by setting 0 as no incidence of disease and 3 as disease development in a plant of untreated group. Further, control values were calculated using the following equation based on disease development.
(§2) <Control Value> Control value=100{1−(n/3)}
(§3) n=Disease development of each treated group
Seeds of a test plant (tomato variety: Oogata Fukuju) were planted and cultivated until three to five first leaves (true leaves) appeared. In the test, the inventive compounds were dissolved into a dimethyl sulfoxide-methanol mixture solution (volume ratio: 9/1), and the resultant solutions were diluted with well water to a concentration of 250 ppm. The thus-obtained dilutions were sprayed to the test plant (2.5 ml/pot). After the dilutions dried, a conidial suspension (4-8×10^5 conidia/ml) of Botrytis cinerea was inoculated to the plant by spraying. After the inoculation, the plant was kept in a mist chamber at room temperature of 20 to 23° C. for about 48 hours to promote the onset of disease. The disease development was investigated 2 to 3 days after the inoculation, and the effectiveness of the dilutions was evaluated.

[4] = system: Colletotrichum orbiculare; experiment: Test Example H: Anthracnose on cucumber; settings: in Cucumis sativus, read-out: control value
Procedure: as §1, §2, §3
Seeds of a test plant (cucumber variety: Sagami Hanjiro) were planted and cultivated until the first leaf appeared. In the test, the inventive compounds were dissolved into a dimethyl sulfoxide-methanol mixture solution (volume ratio: 9/1), and the resultant solutions were diluted with well water to a concentration of 250 ppm. The thus-obtained dilutions were sprayed to the test plant (2.5 ml/pot). After the dilutions dried, a conidial suspension (2-4×10^5 conidia/ml) of Colletotrichum orbiculare was inoculated to the plant by spraying. After the inoculation, the plant was kept in a mist chamber at room temperature of 20 to 23° C. for about 24 hours to promote the onset of disease. The disease development was investigated 6 to 10 days after the inoculation, and the effectiveness of the dilutions was evaluated.

[5] = system: Blumeria graminis f. sp. hordei; experiment: Test Example D: Powdery mildew on barley; settings: in Hordeum vulgare, read-out: control value
Procedure: as §1, §2, §3
Seeds of a test plant (barley variety: Akashinriki) were planted and cultivated until the first leaves appeared. In the test, the inventive compounds were dissolved into a dimethyl sulfoxide-methanol mixture solution (volume ratio: 9/1), and the resultant solutions were diluted with well water to a concentration of 250 ppm. The thus-obtained dilutions were sprayed to the test plant (2.5 ml/pot). After the dilutions dried, conidia of Blumeria graminis f. sp. hordei were inoculated to the plant by shaking off. The disease development was investigated 6 to 10 days after the inoculation, and the effectiveness of the dilutions was evaluated.

[6] = system: Alternaia brassicicola; experiment: Test Example C: Alternaria sooty spot on cabbage; settings: Brassica oleracea, read-out: control value
Procedure: as §1, §2, §3
Seeds of a test plant (cabbage variety: Shikidori) were planted and cultivated until the cotyledons extended. In the test, the inventive compounds were dissolved into a dimethyl sulfoxide-methanol mixture solution (volume ratio: 9/1), and the resultant solutions were diluted with well water to a concentration of 250 ppm. The thus-obtained dilutions were sprayed to the test plant (2.5 ml/pot). After the dilutions dried, a conidial suspension (4-8×10^5 conidia/ml) of Alternaia brassicicola was inoculated to the plant by spraying. After the inoculation, the plant was kept in a mist chamber at room temperature of 20 to 23° C. for about 48 hours to promote the onset of disease. The disease development was investigated 2 to 3 days after the inoculation, and the effectiveness of the dilutions was evaluated.

Measured: pest or weed control at 250 ppm

CCN1C(=O)CCC(c2cc(F)cc(F)c2Cl)=C1c1ccc(F)cc1 [compound 11, 5-(2-chloro-3,5-difluorophenyl)-1-ethyl-6-(4-fluorophenyl)-3,4-dihydropyridin-2(1H)-one]
> 50%: all assays above

CCn1c(-c2ccc(F)cc2)c(-c2cc(F)cc(F)c2Cl)ccc1=O [compound 12, 5-(2-chloro-3,5-difluorophenyl)-1-ethyl-6-(4-fluorophenyl)pyridin-2(1H)-one]
> 50%: all assays above

CCn1c(-c2ccc(F)cc2)c(-c2cc(F)cc(F)c2Cl)cc(Cl)c1=O [compound 13, 3-chloro-5-(2-chloro-3,5-difluorophenyl)-1-ethyl-6-(4-fluorophenyl)pyridin-2(1H)-one]
> 50%: all assays above

CCn1c(-c2ccc(F)cc2)c(-c2cc(F)cc(F)c2Cl)cc(Br)c1=O [compound 14, 3-bromo-5-(2-chloro-3,5-difluorophenyl)-1-ethyl-6-(4-fluorophenyl)pyridin-2(1H)-one]
> 50%: all assays above

CCn1c(-c2ccc(F)cc2)c(-c2cc(F)cc(F)c2Cl)cc(C)c1=O [compound 27, 5-(2-Chloro-3,5-difluorophenyl)-1-ethyl-6-(4-fluorophenyl)-3-methylpyridin-2(1H)-one]
> 50%: all assays above

O=C1CCC(c2cc(F)cc(F)c2Cl)=C(c2ccc(F)cc2)N1CC(F)F [compound 29, 5-(2-chloro-3,5-difluorophenyl)-1-(2,2-difluoroethyl)-6-(4-fluorophenyl)-3,4-dihydropy ridin-2(1H)-one]
> 50%: [1] | [2] | [4] | [5]

O=c1ccc(-c2cc(F)cc(F)c2Cl)c(-c2ccc(F)cc2)n1CC(F)F [compound 30, 5-(2-chloro-3,5-difluorophenyl)-1-(2,2-difluoroethyl)-6-(4-fluorophenyl)pyridin-2(1H)-one]
> 50%: all assays above

O=c1c(Cl)cc(-c2cc(F)cc(F)c2Cl)c(-c2ccc(F)cc2)n1CC(F)F [compound 31, 3-chloro-5-(2-chloro-3,5-difluorophenyl)-1-(2,2-difluoroethyl)-6-(4-fluorophenyl)pyridin-2(1H)-one]
> 50%: all assays above

CCn1c(-c2ccc(F)cc2)c(-c2cc(OC)ccc2Cl)ccc1=O [compound 33, 5-(2-chloro-5-methoxyphenyl)-1-ethyl-6-(4-fluorophenyl)pyridin-2(1H)-one]
> 50%: all assays above

CCn1c(-c2ccc(F)cc2)c(-c2cc(OC)ccc2Cl)cc(Cl)c1=O [compound 44, 3-Chloro-5-(2-chloro-5-methoxyphenyl)-1-ethyl-6-(4-fluorophenyl)pyridin-2(1H)-one]
> 50%: all assays above

CCn1c(-c2ccc(F)cc2)c(-c2cc(OCOC)ccc2Cl)cc(Cl)c1=O [compound 248, 3-chloro-5-(2-chloro-5-(methoxymethoxy)phenyl)-1-ethyl-6-(4-fluorophenyl)pyridin-2(1H)-one]
> 50%: all assays above

CCn1c(-c2ccc(F)cc2)c(-c2cccnc2Cl)ccc1=O [compound 288, 2′-chloro-1-ethyl-2-(4-fluorophenyl)-[3,3′-bipyridin]-6(1H)-one]
> 50%: all assays above

CCn1c(-c2ccc(F)cc2)c(-c2cccnc2Cl)cc(Cl)c1=O [compound 291, 2′,5-dichloro-1-ethyl-2-(4-fluorophenyl)-[3,3′-bipyridin]-6(1H)-one]
> 50%: all assays above

CCn1c(-c2ccc(F)cc2)c(-c2cc(O)ccc2Cl)cc(Cl)c1=O [compound 340, 3-chloro-5-(2-chloro-5-hydroxyphenyl)-1-ethyl-6-(4-fluorophenyl)pyridin-2(1H)-one]
> 50%: all assays above
